These results are taken from US20240400564A1 (Syndax Pharmaceuticals, Inc, priority 2021, published 2024).

In this assay the test system is MLLr leukemia cell line MV4-11. Description: Cell proliferation assay MV4;11 (CellTiter-Glo, 72 hours). The assay is classed as cell-based. Particulars: Homo sapiens; MV4-11 cells, 72 hours, CellTiter-Glo; read-out: MV4; 11 IC50. The protocol: Compounds were evaluated for its capacity to inhibit the proliferation of the MLLr leukemia cell line MV4-11 that harbors an MLL1-AF4 fusion protein. MV4-11 cells were cultured for 72 hours with limiting dilutions of compounds and viability was measured using CellTiter-Glo.
Compounds were dissolved to obtain as 10 mM solution in DMSO. The stock was diluted 1:5 to the top concentration of 2 mM in 100% DMSO. For IC50 determination, serial 1:3.16 dilutions were prepared in 100% DMSO by diluting 20 μL into 43.5 μL of DMSO for 8 concentrations. Each prepared DMSO solution were further diluted 1:500 in the cell culture media to obtain the 2× dosing solutions. The final concentrations of tested compounds in the cell culture media ranged from 0.632 nM to 2000 nM.
MV4-11 cells were cultured in IMDM with 10% FBS and 1× Penicillin-Streptomycin at 5% CO2 and 37° C. A cell suspension was prepared containing 15,000 cells/ml in the culture medium and 100 μL of this suspension was added per well to a 96-well cell culture plate. Then, 100 μL of 2× dosing media containing test compounds were added bringing the total volume to 200 μL. These cells were cultured for 72 hours at 37° C. and 5% CO2 in a humidified incubator.
After 72 hours, the cultured cells were mixed and 100 μL was transferred to a 96-well black plate. Cell Titer Glo (100 μl) was then added to this plate. The plate was mixed with shaking for 15 mins at RT, the luminescence was then measured using Tecan Spark 20M spectrophotometer. Cell Viability (%) was determined by RLU of test/RLU average vehicle control*100 and % max inhibition was determined by 100−(% cell viability remaining at the top concentration of compound).
A general note: ATP-based viability assays read luminescence as a measure of living cells.
`Cc1nc(S(=O)(=O)N[C@@H]2CC[C@@H](CN3CCC4(CC3)CN(c3ncncc3Oc3ccc(F)cc3C(=O)N(C(C)C)[C@H]3CCOC3)C4)OC2)cs1` [Example 135, 5-Fluoro-N-isopropyl-2-((4-(7-(((2S,5R)-5-((2-methylthiazole)-4-sulfonamido)tetrahydro-21H-pyran-2-yl)methyl)-2,7-diazaspiro[3.5]nonan-2-yl)pyrimidin-5-yl)oxy)-N-((S)-tetrahydrofuran-3-yl)benzamide]: the IC50 was less than 100 nM.
The figure for `CC(C)N(C)C(=O)c1cc(F)ccc1Oc1cncnc1N1CC2(CCN(C[C@@H]3CC[C@@H](NS(=O)(=O)c4cnn(C)c4)CO3)CC2)C1` [Example 139, 5-Fluoro-N-isopropyl-N-methyl-2-((4-(7-(((2S,5R)-5-((1-methyl-1H-pyrazole)-4-sulfonamido)tetrahydro-2H-pyran-2-yl)methyl)-2,7-diazaspiro[3.5]nonan-2-yl)pyrimidin-5-yl)oxy)benzamide] is 100 to 1000 nM; for `CC(C)N(CC(F)F)C(=O)c1cc(F)ccc1Oc1nncnc1N1CC2(CCN(C[C@@H]3CC[C@@H](NS(=O)(=O)c4cnn(C)c4)CO3)CC2)C1` [Example 187, N-(2,2-Difluoroethyl)-5-fluoro-N-isopropyl-2-((5-(7-(((2S,5R)-5-((1-methyl-1H-pyrazole)-4-sulfonamido)tetrahydro-2H-pyran-2-yl)methyl)-2,7-diazaspiro[3.5]nonan-2-yl)-1,2,4-triazin-6-yl)oxy)benzamide] it is less than 100 nM; for `CC(C)N(CC(F)(F)F)C(=O)c1cc(F)ccc1Oc1nncnc1N1CC2(CCN(C[C@@H]3CC[C@@H](NS(=O)(=O)c4cnn(C)c4)CO3)CC2)C1` [Example 192, 5-Fluoro-N-isopropyl-2-((5-(7-(((2R,5S)-5-((1-methyl-1H-pyrazole)-4-sulfonamido)tetrahydro-2H-pyran-2-yl)methyl)-2,7-diazaspiro[3.5]nonan-2-yl)-1,2,4-triazin-6-yl)oxy)-N-(2,2,2-trifluoroethyl)benzamide] it is less than 100 nM.
With `CC(C)N(C(=O)c1cc(F)ccc1Oc1nncnc1N1CC2(CCN(C[C@@H]3CC[C@@H](NS(=O)(=O)c4cnn(C)c4)CO3)CC2)C1)C(C)C` [Example 197, 5-Fluoro-N,N-diisopropyl-2-((5-(7-(((2S,5R)-5-((1-methyl-1H-pyrazole)-4-sulfonamido)tetrahydro-2H-pyran-2-yl)methyl)-2,7-diazaspiro[3.5]nonan-2-yl)-1,2,4-triazin-6-yl)oxy)benzamide], the IC50 was less than 100 nM.
The figure for `CC(C)N(C(=O)c1cc(F)ccc1Oc1cncnc1N1CC2(CCN(C[C@@H]3CC[C@@H](NS(=O)(=O)N4CCC[C@H]4C)CO3)CC2)C1)[C@@H]1CCOC1` [Example 204, 5-Fluoro-N-isopropyl-2-((4-(7-(((2S,5R)-5-(((R)-2-methylpyrrolidine)-1-sulfonamido)tetrahydro-2H-pyran-2-yl)methyl)-2,7-diazaspiro[3.5]nonan-2-yl)pyrimidin-5-yl)oxy)-N-((R)-tetrahydrofuran-3-yl)benzamide] is less than 100 nM; for `CC(C)N(C(=O)c1cc(F)ccc1Oc1cncnc1N1CC2(CCN(C[C@@H]3CC[C@@H](NS(=O)(=O)N4CCC[C@@H]4C)CO3)CC2)C1)[C@@H]1CCOC1` [Example 205, 5-Fluoro-N-isopropyl-2-((4-(7-(((2S,5R)-5-(((S)-2-methylpyrrolidine)-1-sulfonamido)tetrahydro-2H-pyran-2-yl)methyl)-2,7-diazaspiro[3.5]nonan-2-yl)pyrimidin-5-yl)oxy)-N-((R)-tetrahydrofuran-3-yl)benzamide] it is less than 100 nM.
With `CC(C)N(C(=O)c1cc(F)ccc1Oc1cncnc1N1CC2(CCN(C[C@@H]3CC[C@@H](NS(=O)(=O)N4CCC[C@@H]4C)CO3)CC2)C1)C1CCOC1` (stereo partly drawn) [Example 206, 5-Fluoro-N-isopropyl-2-((4-(7-(((2S,5R)-5-(((S)-2-methylpyrrolidine)-1-sulfonamido)tetrahydro-2H-pyran-2-yl)methyl)-2,7-diazaspiro[3.5]nonan-2-yl)pyrimidin-5-yl)oxy)-N-((S)-tetrahydrofuran-3-yl)benzamide] the figure was less than 100 nM.
With `CC(C)N(C(=O)c1cc(F)ccc1Oc1cncnc1N1CC2(CCN(C[C@@H]3CC[C@@H](NS(=O)(=O)N4CCC[C@H]4C)CO3)CC2)C1)C1CCOC1` (stereo partly drawn) [Example 207, 5-Fluoro-N-isopropyl-2-((4-(7-(((2S,5R)-5-(((R)-2-methylpyrrolidine)-1-sulfonamido)tetrahydro-2H-pyran-2-yl)methyl)-2,7-diazaspiro[3.5]nonan-2-yl)pyrimidin-5-yl)oxy)-N-((S)-tetrahydrofuran-3-yl)benzamide] the figure was less than 100 nM.
On to `COC[C@H]1CCCN1S(=O)(=O)N[C@@H]1CC[C@@H](CN2CCC3(CC2)CN(c2ncncc2Oc2ccc(F)cc2C(=O)N(C(C)C)C(C)C)C3)OC1` [Example 212, 5-Fluoro-N,N-diisopropyl-2-((4-(7-(((2S,5R)-5-(((R)-2-(methoxymethyl)pyrrolidine)-1-sulfonamido)tetrahydro-2H-pyran-2-yl)methyl)-2,7-diazaspiro[3.5]nonan-2-yl)pyrimidin-5-yl)oxy)benzamide], for which the IC50 was less than 100 nM.
Take `COC[C@@H]1CCCN1S(=O)(=O)N[C@@H]1CC[C@@H](CN2CCC3(CC2)CN(c2ncncc2Oc2ccc(F)cc2C(=O)N(C(C)C)C(C)C)C3)OC1` [Example 213, 5-Fluoro-N,N-diisopropyl-2-((4-(7-(((2S,5R)-5-(((S)-2-(methoxymethyl)pyrrolidine)-1-sulfonamido)tetrahydro-2H-pyran-2-yl)methyl)-2,7-diazaspiro[3.5]nonan-2-yl)pyrimidin-5-yl)oxy)benzamide]: the IC50 was less than 100 nM.
The figure for `CN=S(=O)(N[C@@H]1CC[C@@H](CN2CCC3(CC2)CN(c2ncncc2Oc2ccc(F)cc2C(=O)N(C(C)C)C(C)C)C3)OC1)c1ccccc1` (stereo partly drawn) [Example 232, 5-Fluoro-N,N-diisopropyl-2-((4-(7-(((2S,5R)-5-(N′-methylphenylsulfonoamidimidamido)tetrahydro-2H-pyran-2-yl)methyl)-2,7-diazaspiro[3.5]nonan-2-yl)pyrimidin-5-yl)oxy)benzamide] is 100 to 1000 nM; for `CC(C)N(C(=O)c1cc(F)ccc1Oc1cncnc1N1CC2(CCN(C[C@@H]3CC[C@@H](NS(=N)(=O)C4CC4)CO3)CC2)C1)C(C)C` (stereo partly drawn) [Example 233, 2-((4-(7-(((2S,5R)-5-(Cyclopropanesulfonoamidimidamido)tetrahydro-2H-pyran-2-yl)methyl)-2,7-diazaspiro[3.5]nonan-2-yl)pyrimidin-5-yl)oxy)-5-fluoro-N,N-diisopropylbenzamide] it is less than 100 nM.
With `Cc1ncc(S(=O)(=O)N[C@@H]2CC[C@@H](CN3CCC4(CC3)CN(c3ncncc3Oc3ccc(F)cc3C(=O)N(C(C)C)C(C)C)C4)OC2)[nH]1` [Example 234, 5-Fluoro-N,N-diisopropyl-2-((4-(7-(((2S,5R)-5-((2-methyl-1H-imidazole)-5-sulfonamido)tetrahydro-2H-pyran-2-yl)methyl)-2,7-diazaspiro[3.5]nonan-2-yl)pyrimidin-5-yl)oxy)benzamide] the figure was less than 100 nM; with `CC(C)N(CC(F)F)C(=O)c1cc(F)ccc1Oc1cncnc1N1CC2(CCN(C[C@@H]3CC[C@@H](NS(=O)(=O)N4CC(OCc5ccccc5)C4)CO3)CC2)C1` [Example 236, 2-((4-(7-(((2S,5R)-5-((3-(Benzyloxy)azetidine)-1-sulfonamido)tetrahydro-2H-pyran-2-yl)methyl)-2,7-diazaspiro[3.5]nonan-2-yl)pyrimidin-5-yl)oxy)-N-(2,2-difluoroethyl)-5-fluoro-N-isopropylbenzamide], less than 100 nM; with `CC(C)N(CC(F)F)C(=O)c1cc(F)ccc1Oc1cncnc1N1CC2(CCN(C[C@@H]3CC[C@@H](NS(=O)(=O)N4CC(O)C4)CO3)CC2)C1` [Example 237, N-(2,2-Difluoroethyl)-5-fluoro-2-((4-(7-(((2S,5R)-5-((3-hydroxyazetidine)-1-sulfonamido)tetrahydro-2H-pyran-2-yl)methyl)-2,7-diazaspiro[3.5]nonan-2-yl)pyrimidin-5-yl)oxy)-N-isopropylbenzamide], less than 100 nM.
Take `CC(C)N(CC(F)F)C(=O)c1cc(F)ccc1Oc1cncnc1N1CC2(CCN(C[C@@H]3CC[C@@H](NS(=O)(=O)N(C)CCOCc4ccccc4)CO3)CC2)C1` [Example 238]: the IC50 was less than 100 nM.
The figure for `CCS(=O)(=O)N[C@@H]1CC[C@@H](CN2CCC3(CC2)CN(c2ncncc2Oc2ccc(F)cc2C(=O)N(C(C)C)[C@H]2[C@@H]4COC[C@@H]42)C3)OC1` [Example 253, N-((1R,5S,6r)-3-Oxabicyclo[3.1.0]hexan-6-yl)-2-((4-(7-(((2S,5R)-5-(ethylsulfonamido)tetrahydro-2H-pyran-2-yl)methyl)-2,7-diazaspiro[3.5]nonan-2-yl)pyrimidin-5-yl)oxy)-5-fluoro-N-isopropylbenzamide] is 100 to 1000 nM.
